Measured values reported in ChEMBL document CHEMBL1201862, “PubChem BioAssay data set” (2004).
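These data come from cells grown in 96-well plates and exposed to compound for 48 hours at five concentrations. Abbreviation: GI50, concentration required for 50% inhibition of growth.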 Active and inactive are the calls of the source. Rule as the data show it: active = GI50 up to about 1.1 µM and inactive = higher.

How the values were obtained:
Assay in all cases: NCI anticancer screen, dose series, 48 h
[1] = test system: A549
[2] = test system: CCRF-CEM
[3] = test system: EKVX
[4] = test system: HCC 2998
[5] = test system: HCT-116
[6] = test system: HCT-15
[7] = test system: HOP-62
[8] = test system: HT-29
[9] = test system: LOX IMVI
[10] = test system: M14
[11] = test system: Malme-3M
[12] = test system: NCI/ADR-RES
[13] = test system: OVCAR-5
[14] = test system: RXF 393
[15] = test system: SF-268
[16] = test system: SW-620
[17] = test system: UACC-257
[18] = test system: UACC-62
[19] = test system: UO-31

SMILES | GI50 [1] | GI50 [2] | GI50 [3] | GI50 [4] | GI50 [5] | GI50 [6] [µM] | GI50 [7] | GI50 [8] | GI50 [9] | GI50 [10] | GI50 [11] | GI50 [12] | GI50 [13] | GI50 [14] | GI50 [15] | GI50 [16] | GI50 [17] | GI50 [18] | GI50 [19]
CC/C(Cl)=N\OC(=O)Nc1ccc(OC)c(C)c1 | 27.9 µM (inactive) | 4.93 µM (inactive) | 3.15 µM (inactive) | 19.6 µM (inactive) | 12.6 µM (inactive) | 6.34 | 34.4 µM (inactive) | 17.4 µM (inactive) | 10.9 µM (inactive) | 17.9 µM (inactive) | 11.4 µM (inactive) | 15 µM (inactive) | 30.5 µM (inactive) | 14.6 µM (inactive) | 29.2 µM (inactive) | 24.3 µM (inactive) | 16.5 µM (inactive) | 15 µM (inactive) | 15.3 µM (inactive)
COc1cc2c(cc1OC)-c1cc3ccccc3c(=O)n1CCC2 | 8.28 µM (inactive) | 6.73 µM (inactive) | 21.9 µM (inactive) | 13.7 µM (inactive) | 3.94 µM (inactive) | 2.07 | 12 µM (inactive) | 4.17 µM (inactive) | 2.66 µM (inactive) | 14.8 µM (inactive) | 20 µM (inactive) | 5.27 µM (inactive) | 45.7 µM (inactive) | 5.02 µM (inactive) | 13.3 µM (inactive) | 8.32 µM (inactive) | 19.8 µM (inactive) | 11.4 µM (inactive) | 13 µM (inactive)
Sc1nnc(COc2ccc(Cl)cc2)n1-c1ccccc1 | > 100 µM (inactive) | 74.1 µM (inactive) | > 100 µM (inactive) | > 100 µM (inactive) | 46.1 µM (inactive) | > 100 | > 100 µM (inactive) | > 100 µM (inactive) | 49.3 µM (inactive) | > 100 µM (inactive) | > 100 µM (inactive) | > 100 µM (inactive) | > 100 µM (inactive) | > 100 µM (inactive) | > 100 µM (inactive) | > 100 µM (inactive) | > 100 µM (inactive) | > 100 µM (inactive) | 61.2 µM (inactive)
CC(C)=NNc1ncnc2[nH]cnc12 | 4.89 µM (inactive) | 4.9 µM (inactive) | 12.9 µM (inactive) | 5.04 µM (inactive) | 3.71 µM (inactive) | 6.01 | 5.12 µM (inactive) | 6.04 µM (inactive) | 4.78 µM (inactive) | 4.65 µM (inactive) | 49.7 µM (inactive) | 5.01 µM (inactive) | 4.65 µM (inactive) | 6.87 µM (inactive) | 7.89 µM (inactive) | 11.9 µM (inactive) | 10 µM (inactive) | 2.68 µM (inactive) | 3.21 µM (inactive)
CSCCCNC(=O)[C@H](CSC)NC(=O)c1csc(CCNC(=O)[C@@H](NSc2ccccc2[N+](=O)[O-])C(C)O)n1 (stereo partly drawn) | > 100 µM (inactive) | > 100 µM (inactive) | > 100 µM (inactive) | > 100 µM (inactive) | > 100 µM (inactive) | > 100 | > 100 µM (inactive) | > 100 µM (inactive) | > 100 µM (inactive) | > 100 µM (inactive) | > 100 µM (inactive) | > 100 µM (inactive) | > 100 µM (inactive) | > 100 µM (inactive) | > 100 µM (inactive) | > 100 µM (inactive) | > 100 µM (inactive) | > 100 µM (inactive) | > 100 µM (inactive)
C=CC(Cl)(CBr)CCC(Br)=C(C)C (stereo not drawn) | 43.6 µM (inactive) | 26 µM (inactive) | 35.4 µM (inactive) | 23.6 µM (inactive) | 23.6 µM (inactive) | 10.4 | > 100 µM (inactive) | 19.5 µM (inactive) | 15.7 µM (inactive) | 25.5 µM (inactive) | 17.6 µM (inactive) | 28.8 µM (inactive) | 26.8 µM (inactive) | 17.5 µM (inactive) | 21 µM (inactive) | 15.8 µM (inactive) | 25.8 µM (inactive) | 18.6 µM (inactive) | 18.8 µM (inactive)
C#CCn1ncc2c(SCc3ccccc3)ncnc21 | > 100 µM (inactive) | 79.8 µM (inactive) | 97.7 µM (inactive) | > 100 µM (inactive) | 62.8 µM (inactive) | > 100 | > 100 µM (inactive) | > 100 µM (inactive) | > 100 µM (inactive) | 50.7 µM (inactive) | > 100 µM (inactive) | > 100 µM (inactive) | > 100 µM (inactive) | > 100 µM (inactive) | > 100 µM (inactive) | > 100 µM (inactive) | 70 µM (inactive) | > 100 µM (inactive) | 89.7 µM (inactive)
O=C1Nc2ccccc2/C1=N/NC(=S)Nc1cccc(Cl)c1 | 7.08 µM (inactive) | 2.75 µM (inactive) | 10.3 µM (inactive) | 66.4 µM (inactive) | 3.49 µM (inactive) | 7.64 | 10.9 µM (inactive) | 10.1 µM (inactive) | 5.37 µM (inactive) | 10.4 µM (inactive) | 19.9 µM (inactive) | 2.37 µM (inactive) | 24.5 µM (inactive) | 7.6 µM (inactive) | 4.53 µM (inactive) | 4.09 µM (inactive) | 29.4 µM (inactive) | 8.41 µM (inactive) | 19.5 µM (inactive)
NNC(=O)C(O)C(O)C(=O)NN (stereo not drawn) | 66.4 µM (inactive) | > 100 µM (inactive) | > 100 µM (inactive) | > 100 µM (inactive) | 73.3 µM (inactive) | > 100 | > 100 µM (inactive) | > 100 µM (inactive) | 65.9 µM (inactive) | > 100 µM (inactive) | > 100 µM (inactive) | > 100 µM (inactive) | > 100 µM (inactive) | > 100 µM (inactive) | > 100 µM (inactive) | > 100 µM (inactive) | > 100 µM (inactive) | > 100 µM (inactive) | > 100 µM (inactive)
CC(=O)Nc1c(C)cc(OCC(=O)O)cc1C | > 100 µM (inactive) | > 100 µM (inactive) | > 100 µM (inactive) | > 100 µM (inactive) | > 100 µM (inactive) | > 100 | > 100 µM (inactive) | > 100 µM (inactive) | > 100 µM (inactive) | > 100 µM (inactive) | > 100 µM (inactive) | > 100 µM (inactive) | > 100 µM (inactive) | > 100 µM (inactive) | > 100 µM (inactive) | > 100 µM (inactive) | > 100 µM (inactive) | > 100 µM (inactive) | > 100 µM (inactive)
Cc1cccc(NC(=O)/C=C/c2ccc([N+](=O)[O-])cc2)c1 | > 41.7 µM (inactive) | 16 µM (inactive) | 23.2 µM (inactive) | 16.6 µM (inactive) | > 36.9 µM (inactive) | > 35.1 | 16.7 µM (inactive) | 35 µM (inactive) | > 36.3 µM (inactive) | > 43.4 µM (inactive) | 0.838 µM (active) | 29.8 µM (inactive) | > 42.6 µM (inactive) | 34 µM (inactive) | 38.3 µM (inactive) | > 45.3 µM (inactive) | > 39 µM (inactive) | > 41.9 µM (inactive) | > 35.5 µM (inactive)
COC(=O)[C@]12CC[C@H]3CN(C(=O)OCc4ccccc4)[C@H]([C@H]31)[C@H](C(=O)OCC[Si](C)(C)C)N2S(=O)(=O)c1ccc(C)cc1 | 18.4 µM (inactive) | 54 µM (inactive) | 89.9 µM (inactive) | > 100 µM (inactive) | 23 µM (inactive) | > 100 | > 100 µM (inactive) | 42.7 µM (inactive) | 94.4 µM (inactive) | 26.5 µM (inactive) | 96.6 µM (inactive) | > 100 µM (inactive) | > 100 µM (inactive) | 4.74 µM (inactive) | > 100 µM (inactive) | > 100 µM (inactive) | 20 µM (inactive) | > 100 µM (inactive) | 30.3 µM (inactive)
O=S1(=O)c2ccccc2NC(=S)N1c1ccccc1 | 6.17 µM (inactive) | 54.1 µM (inactive) | 32.4 µM (inactive) | 53.5 µM (inactive) | 45.3 µM (inactive) | 75 | 7.1 µM (inactive) | > 13.4 µM (inactive) | 26.7 µM (inactive) | 29.5 µM (inactive) | 46.1 µM (inactive) | 60.1 µM (inactive) | 92.9 µM (inactive) | > 54.2 µM (inactive) | 71.1 µM (inactive) | > 100 µM (inactive) | 40 µM (inactive) | 65.9 µM (inactive) | 36.7 µM (inactive)
CC1=C/C(=N\NS(=O)(=O)c2ccc([N+](=O)[O-])cc2)CC(C)(C)C1 | 48.8 µM (inactive) | > 100 µM (inactive) | > 100 µM (inactive) | > 100 µM (inactive) | 84.3 µM (inactive) | 49.8 | > 100 µM (inactive) |  | > 100 µM (inactive) | > 100 µM (inactive) | > 100 µM (inactive) | 93.5 µM (inactive) | > 100 µM (inactive) | > 100 µM (inactive) | 83.6 µM (inactive) | > 100 µM (inactive) | 80.5 µM (inactive) | 50.2 µM (inactive) | 80.7 µM (inactive)
O=c1c2cc(-c3ccccc3)sc2nc2n1N=C(c1ccc(Cl)cc1)CS2 | > 100 µM (inactive) | > 100 µM (inactive) | > 100 µM (inactive) | > 100 µM (inactive) | > 100 µM (inactive) | > 100 | > 100 µM (inactive) | > 100 µM (inactive) | > 100 µM (inactive) |  | > 100 µM (inactive) | > 100 µM (inactive) | > 100 µM (inactive) | > 100 µM (inactive) | > 100 µM (inactive) | > 100 µM (inactive) | > 100 µM (inactive) | > 100 µM (inactive) | > 100 µM (inactive)
